From patent US11865176B2, “Compositions and methods of modulating anti-tumor immunity” (Dana-Farber Cancer Institute, Inc., priority 2016, dated 2024)

Key:
[1] = tested on: tumor-infiltrating CD3+ T cells; assay: Single-cell RNA-seq of tumor-infiltrating CD3+ T cells from KP GEMM lung tumors; assay type: in vivo, mouse
Description: Library preparation and pre-processing: Single-cell suspensions from KrasG^12D/+Trp53^fl/fl GEMM mice treated with trilaciclib were isolated as described for tumor-infiltrating immune cells, with modifications. After isolation, live cells were stained and sorted for the CD45+CD3+DAPI-population and plated at one cell/well of a skirted twin.tec 96-well plate (Eppendorf) containslxTCL buffer (Qiagen cat #1031576) spiked with ERCC (Ambion, 1:2,000,000 dilution ratio). A total of four 96-well plates were generated, two plates with and two plates without ERCC spike-ins. After sorting, full-length RNA-seq from isolated single cells was performed according to SMART-seq2 protocol with modifications. Briefly, total RNA was purified using RNA-SPRI beads. Poly(A)+ mRNA was converted to cDNA for amplification. The converted cDNA transcript was subject to barcoding specific to each sample using transposon-based fragmentation that used dual-indexing. For single-cell sequencing, each cell was given its own combination of barcodes. Barcoded cDNA fragments were then pooled prior to sequencing. Sequencing was carried out as paired-end (PE) 2×36 bp with an additional 8 cycles for each index on NexSeq 500 desktop sequencer (Illumina). To obtain quantitative mapping information, PE reads were mapped to the mouse genome (mm9), concatenated with ERCC sequences for spiked-in samples, by STAR (56). Estimated transcript counts and transcripts per million (TPM) for the mouse Gencode vM1 annotation, concatenated with ERCC sequence information for spiked-in samples, were obtained using the pseudo-aligner Kallisto (57). Aggregated and library scaled TPM values for genes were obtained according to the methods described (58) and were used in further downstream differential distribution, Gene Ontology and cell cycle analysis. […] Genes were considered not expressed if TPM<1 and were subsequently removed if not detected in at least 10% of remaining cells. The single-cell RNA-seq results have been deposited in NCBI's Gene Expression Omnibus and are accessible through GEO Series accession number GSE89477 (https://www.ncbi.nlm.nih.gov/geo/query/acc.cgi?acc=GSE89477).
We used a multi-step approach using the R package SCONE to identify the optimal normalization strategy and account for possible batch effects, observed and hidden technical covariates (59). […] Next, these genes were used in the SCONE framework as negative control genes for unwanted variation for all plates. We continued with highest scored normalization strategy according to SCONE metrics, which included adjusting for batch and biological effects, removal of observed technical variation based on previously identified quality metrics, scaling for library size with DESeq, and imputing drop-out events using a combined clustering and probabilistic scoring algorithm.
To assign cells to a cell-cycle stage we applied the cyclone classification tool as previously described (60).
Subsequently, we combined two approaches. […] Next, these genes were used to perform PCA and the 100 most correlated and anti-correlated genes for the first 5 principal components were retained for reducing dimensionality and separating cells in gene expression space with t-SNE. Distinct groups were identified applying density based clustering (dbscan) on the t-SNE generated coordinates, resulting in three (3) groups of cells.
Genes that display differential distribution between previously identified groups or between treatments were discovered by performing pairwise comparisons with the scDD (http://biorxiv.org/content/early/2015/12/29/035501) package in R. Enriched biological processes were identified using the online GOrilla tool (http://bmcbioinformatics.biomedcentral.com/articles/10.1186/1471-2105-10-48).

[2] = tested on: splenic T cells (Tconv, CD8+, Treg); assay: Cell co-culture and cytokine production ex vivo; assay type: cell-based, mouse
Procedure: Naïve or KP tumor bearing C57BL/6 mice were sacrificed and total splenocytes were harvested. Spleens were digested with collagenase D (Roche) and Dnase I (Roche) at 37° C. for 30 min, followed by 1×ACS lysis buffer (Biolegend) incubation to lyse red blood cells. The collected total splenocytes were stained with the fluorochome-conjugated cell surface markers CD3, CD4, CD8 and CD25 to isolate different T cell subpopulations, including conventional T cell Tconv (CD3+CD4+[…]), Treg (CD3+CD4+CD25+), and CD8+(CD3+CD8+) using BD FACSAria II SORP cell sorter (BD Bioscience). DAPI (4′,6-diamidino-2-phenylindole) staining was used to exclude dead cells. Sorted cells were cultured in 96-well plates pre-coated with CD3 antibody (eBioscience) and treated with trilaciclib in the presence of CD28 (eBioscience). Cells were collected 3 days after culturing and cytokine production of IFNγ and IL-2 was determined by intracellular staining and analyzed on BD LSRFortessa (BD Bioscience).

In the case of `CN1CCN(c2ccc(Nc3ncc4cc5n(c4n3)C3(CCCCC3)CNC5=O)nc2)CC1` [trilaciclib], the “log2(G1T28 vs vehicle)” value ([1]; gene Aifl) is reported as “Aifl^65 1.045”, the “log2(G1T28 vs vehicle)” value ([1]; gene Ccl2) is reported as “Ccl2^63, 690.6” and the “log2(G1T28 vs vehicle)” value ([1]; gene Ccl5) is reported as “Ccl5^63 0.7416”. For the same molecule, the “log2(G1T28 vs vehicle)” value ([1]; gene Ccna2) was “Ccna2^71 −1.194”, the “log2(G1T28 vs vehicle)” value ([1]; gene Ccnd1) was “Ccnd1^67 0.8223” and the “log2(G1T28 vs vehicle)” value ([1]; gene Ccr2) was “Ccr2^61 3.091”. For the same molecule, the “log2(G1T28 vs vehicle)” value ([1]; gene Cd22) was “Cd22^72 −1.232”, the “log2(G1T28 vs vehicle)” value ([1]; gene Cd86) was “Cd86^70 0.621” and the “log2(G1T28 vs vehicle)” value ([1]; gene Clcf1) was “Clcf1^63 1.47”. For the same molecule, the “log2(G1T28 vs vehicle)” value ([1]; gene Csfl) was “Csfl^63 0.5966”, the “log2(G1T28 vs vehicle)” value ([1]; gene Cx3cr1) was “Cx3cr1^22 1.233” and the “log2(G1T28 vs vehicle)” value ([1]; gene Cxcl1) was “Cxcl1^68 0.7175”. The “log2(G1T28 vs vehicle)” value ([1]; gene Ece1) was “Ece1^62 2.974”, the “log2(G1T28 vs vehicle)” value ([1]; gene Il2ra) was “Il2ra^66 0.9413” and the “log2(G1T28 vs vehicle)” value ([1]; gene Il7r) was “Il7r^64 1.461”. For the same molecule, the “log2(G1T28 vs vehicle)” value ([1]; gene Tnfsf8) was “Tnfsf8^63 1.037”, the IL-2 signaling activation ([1]; group 3, and group 1 to a lesser extent) was “significantly increased IL-2 signaling activation” and the “proportion of T cells in the G1 phase” value ([1]; groups 1 and 3) was “increased the proportion of T cells in the G1 phase”. The IL-2 production ([2]; Tconv cells treated ex vivo, 3 days, naïve vs tumor-bearing mice) was “increased IL-2 production only in cells from tumor-bearing mice” and the “increase of IFNγ production” value ([2]; splenic CD8+ T cells from tumor-bearing mice co-cultured with Tregs) was roughly 10 fold.
